Reference: patent US20260364184A1, “COMPOUND BASED ON OXOISOINDOLINYL-SUBSTITUTED TETRAHYDROPYRIMIDINE-DIONE AND USE THEREOF” (GLUETACS THERAPEUTICS (SHANGHAI) CO., LTD., priority 2023, published 2026)

Key:
Format in all cases: cell-based
[1] = tested on: Human diffuse large B-cell lymphoma cell line (TMD8); assay: Inhibition of TMD8 cell proliferation (CellTiter luminescent viability); conditions: Homo sapiens, TMD8, 96 h, Table IF1, AR inhibitor-based; for inhibition at 0.01 µM: TMD8, 10 nM, read-out: Inhibition Rate at 10 nM (%); for inhibition at 0.5 µM: TMD8, 500 nM, read-out: Inhibition Rate at 500 nM (%)
[2] = tested on: Human acute lymphocytic leukemia T lymphocytes cell line (CCRF-CEM); assay: Inhibition of CCRF-CEM cell proliferation (CellTiter luminescent viability); conditions: Homo sapiens, 96 h, Table IF2, AR inhibitor-based; for inhibition at 0.01 µM: 10 nM, read-out: Inhibition Rate at 10 nM (%); for inhibition at 0.5 µM: 500 nM, read-out: Inhibition Rate at 500 nM (%)
[3] = tested on: Human T lymphocytic leukemia cell line (Jurkat); assay: Inhibition of Jurkat cell proliferation (CellTiter luminescent viability); conditions: Homo sapiens, Table IF3, AR inhibitor-based, 96 hours; for inhibition at 0.01 µM: 10 nM, read-out: Inhibition Rate at 10 nM (%); for inhibition at 0.5 µM: 500 nM, read-out: Inhibition Rate at 500 nM (%)
Experimental: The tumor cells used herein were cultured in a cell culture medium listed in table 3 at 37 °C in an incubator with 5% CO2. Prior to experimentation, all cell lines used were correctly identified by STR profiling, and tested negative for mycoplasma contamination using a mycoplasma detection kit through routine screenings.
The IC50 values of the compounds of the present disclosure (including the compounds in Table 1, Table 2, and Examples 1-468) were determined using the CellTiter-Meiluncell Luminescent Cell Viability Assay Kit from Dalian Meilun Biotech Co., Ltd. The detailed procedure is as follows: Tumor cells were seeded in 96-well cell culture plates at the densities specified in Table 4. On the following day, the test compounds of the present disclosure were subjected to serial dilution. The dilution can be performed according to one of the following two methods: • (1) The first dilution method: The test compounds of the present disclosure (including the compounds in Table 1, Table 2, and Examples 1-468) were subjected to 5-fold serial dilutions starting from a highest concentration of 2000 μM, resulting in a total of 9 concentrations from high to low (2000, 400, 80, 16, 3.2, 0.64, 0.128, 0.0256, 0.00512 μM). Subsequently, 0.5 μL of the test compound dilution was transferred into the 96-well plate containing the cells, with each well containing 100 μL of cell culture medium. […] Into the 96-well plate, the diluted test compounds and corresponding detection reagents were added, resulting in final test compound concentrations of 500 nM and 10 nM, respectively. The experimental procedure is described below using the diluted 2 μM test compound as an example.
0.5 μL of the aforementioned diluted compound of the present disclosure (including the compounds in Table 1, Table 2, and Examples 1-468) was added to the seeded cells in 100 μL of medium, yielding a final test compound concentration of 10 nM. After the cells were treated with the compounds of the present disclosure for a specified period, the cell viability assay reagent was added to the culture medium according to the kit's instructions to determine cell viability. […] All controls were treated using the same procedure as the compounds of the present disclosure. The growth inhibition curves for the compounds of the present disclosure were plotted using Prism GraphPad software, and the IC50 values were calculated therefrom.

AR = molecular target: T1, AR (Homo sapiens, UniProt P10275); assay: Western blot degradation of AR; conditions: LnCap Cell; 24 hours
T1 construct: expression of target proteins in cells; endogenous in cells
T1 sequence (P10275 1-920): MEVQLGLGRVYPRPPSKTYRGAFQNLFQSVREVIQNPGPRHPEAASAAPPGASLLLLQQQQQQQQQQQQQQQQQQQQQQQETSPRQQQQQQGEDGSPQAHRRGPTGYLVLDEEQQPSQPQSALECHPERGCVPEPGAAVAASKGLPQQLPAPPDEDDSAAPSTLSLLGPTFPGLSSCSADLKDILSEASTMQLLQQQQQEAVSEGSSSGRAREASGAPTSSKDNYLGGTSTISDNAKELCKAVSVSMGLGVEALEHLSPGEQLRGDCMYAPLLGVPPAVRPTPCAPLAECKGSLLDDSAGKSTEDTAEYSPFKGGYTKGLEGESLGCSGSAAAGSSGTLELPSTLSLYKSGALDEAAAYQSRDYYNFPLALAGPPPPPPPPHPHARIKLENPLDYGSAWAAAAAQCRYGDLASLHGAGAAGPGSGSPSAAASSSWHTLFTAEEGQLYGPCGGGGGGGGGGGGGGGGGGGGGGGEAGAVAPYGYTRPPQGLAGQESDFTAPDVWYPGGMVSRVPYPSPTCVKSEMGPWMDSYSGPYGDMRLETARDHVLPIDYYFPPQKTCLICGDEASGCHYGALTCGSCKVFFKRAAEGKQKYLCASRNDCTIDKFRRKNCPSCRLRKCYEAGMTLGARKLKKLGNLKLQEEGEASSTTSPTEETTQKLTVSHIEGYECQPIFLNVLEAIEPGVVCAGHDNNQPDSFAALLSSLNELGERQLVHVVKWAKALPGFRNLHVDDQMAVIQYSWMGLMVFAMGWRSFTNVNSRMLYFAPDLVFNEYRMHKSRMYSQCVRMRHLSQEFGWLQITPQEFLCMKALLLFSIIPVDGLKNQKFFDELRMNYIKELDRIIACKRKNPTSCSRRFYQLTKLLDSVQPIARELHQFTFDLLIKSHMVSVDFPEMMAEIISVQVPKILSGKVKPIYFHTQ
Experimental: Conventional Western blot assay was performed to evaluate the effects of the compounds of the present disclosure on the expression of target proteins in cells.
(1) Cell Seeding and Protein Harvesting: The selected cells were processed according to the cell seeding procedure and protein harvesting procedure in Table II-2.
(2) To the collected supernatant, 5×SDS sample loading buffer was added, followed by denaturation at 95 °C for 5 minutes. The denatured samples were then separated by SDS-PAGE electrophoresis on a polyacrylamide gel. Proteins were transferred to a nitrocellulose membrane (0.45 μm NC membrane), blocked with blocking buffer at room temperature for 1 hour, and subjected to antibody incubation and development procedures according to the antibody manufacturer's instructions (Cell Signaling Technology).
Half-Maximal Degradation Concentration value (the drug concentration required for degrading proteins by 50%, abbreviated as DC50) reads method: comparing the grayscale values of Western blot bands from drug-treated samples with those from blank DMSO-treated controls, and identifying the drug concentration range at which the grayscale value is half that of the DMSO-treated control bands.
DC50 values can be calculated using ImageJ software to measure grayscale values of Western blot bands from drug-treated samples. The concentration-response curve is fitted to estimate the drug concentration corresponding to half the grayscale value.
Target protein remaining (%) refers to the percentage of target protein remaining in cells after treatment with protein degrader compounds.
Calculation method for target protein remaining (%): Use ImageJ software to measure grayscale values of Western blot bands from drug (protein degrader)-treated samples. The grayscale value of drug-treated bands is divided by that of internal control protein bands, and the resulting quotient is normalized to obtain the relative percentage of remaining target protein after protein degrader treatment.
Target protein degradation rate (%)=1−target protein remaining (%).

`CC1(C)[C@H](NC(=O)c2ccc(N3CCC(CN4CC5CCC(C4)N5c4ccc5c(c4)C(=O)N(N4CCC(=O)NC4=O)C5=O)CC3)nc2)C(C)(C)[C@H]1Oc1ccc(C#N)c(Cl)c1` [GT-05305, N-((1r,3r)-3-(3-chloro-4-cyanophenoxy)-2,2,4,4-tetramethylcyclobutyl)-6-(4-((8-(2-(2,4-dioxotetrahydropyrimidin-1(2H)-yl)-1,3-dioxoisoindolin-5-yl)-3,8-diazabicyclo[3.2.1]octan-3-yl)methyl)piperidin-1-yl)nicotinamide] was tested, and the inhibition at 0.01 µM [1] was 25 to 30%, the inhibition at 0.5 µM [1] was 40 to 60% and the inhibition at 0.01 µM [2] was 20 to 30%. The inhibition at 0.5 µM [2] was 40 to 60%, the inhibition at 0.01 µM [3] was 10 to 15% and the inhibition at 0.5 µM [3] was 40 to 60%. The “Degradation of substrate protein AR (substrate protein remaining %)” value (from here on “Degradation … (substrate protein remaining %)”) (AR) was “A (0%≤substrate protein remaining %≤80%)”.
`CC1(C)[C@H](NC(=O)c2ccc(N3CCC(CN4C5CC4CN(c4ccc6c(c4)C(=O)N(N4CCC(=O)NC4=O)C6=O)C5)CC3)nc2)C(C)(C)[C@H]1Oc1ccc(C#N)c(Cl)c1` [GT-05823, N-((1r,3r)-3-(3-chloro-4-cyanophenoxy)-2,2,4,4-tetramethylcyclobutyl)-6-(4-((3-(2-(2,4-dioxotetrahydropyrimidin-1(2H)-yl)-1,3-dioxoisoindolin-5-yl)-3,6-diazabicyclo[3.1.1]heptan-6-yl)methyl)piperidin-1-yl)nicotinamide] gave an inhibition at 0.01 µM [1] of 10 to 15%, an inhibition at 0.5 µM [1] of 35 to 40% and an inhibition at 0.01 µM [2] of 5 to 10%. For the same compound, the inhibition at 0.5 µM [2] was 20 to 30%, the inhibition at 0.01 µM [3] was 5 to 10% and the inhibition at 0.5 µM [3] was 20 to 30%. For the same compound, the “Degradation … (substrate protein remaining %)” value (AR) was “A (0%≤substrate protein remaining %≤80%)”.
Work on `CC1(C)[C@H](NC(=O)c2ccc(N3CCC(CN4C5CCC4CN(c4ccc6c(c4)C(=O)N(N4CCC(=O)NC4=O)C6=O)C5)CC3)nc2)C(C)(C)[C@H]1Oc1ccc(C#N)c(Cl)c1` [GT-05826, N-((1r,3r)-3-(3-chloro-4-cyanophenoxy)-2,2,4,4-tetramethylcyclobutyl)-6-(4-((3-(2-(2,4-dioxotetrahydropyrimidin-1(2H)-yl)-1,3-dioxoisoindolin-5-yl)-3,8-diazabicyclo[3.2.1]octan-8-yl)methyl)piperidin-1-yl)nicotinamide] yielded an inhibition at 0.01 µM [1] of 25 to 30%, an inhibition at 0.5 µM [1] of 40 to 60% and an inhibition at 0.01 µM [2] of 20 to 30%. The inhibition at 0.5 µM [2] was 40 to 60%, the inhibition at 0.01 µM [3] was 20 to 30% and the inhibition at 0.5 µM [3] was 40 to 60%. For the same compound, the “Degradation … (substrate protein remaining %)” value (AR) was “A (0%≤substrate protein remaining %≤80%)”.
In the case of `Cc1ccc(-c2c(C)noc2C)cc1N(CC1CCN(CC2CCN(c3ccc4c(c3)C(=O)N(N3CCC(=O)NC3=O)C4=O)CC2)CC1)c1ccc(C2(C#N)CC2)cc1` [GT-06418, 1-(4-((5-(3,5-dimethylisoxazol-4-yl)-2-methylphenyl)((1-((1-(2-(2,4-dioxotetrahydropyrimidin-1(2H)-yl)-1,3-dioxoisoindolin-5-yl)piperidin-4-yl)methyl)piperidin-4-yl)methyl)amino)phenyl)cyclopropane-1-carbonitrile], the “Degradation … (substrate protein remaining %)” value (AR) is reported as “A (0%≤substrate protein remaining %≤80%)”.
For `Cc1ccc(-c2c(C)noc2C)cc1N(CC1CCN(Cc2ccc3c(c2)CN(N2CCC(=O)NC2=O)C3=O)CC1)c1ccc(C2(C#N)CC2)cc1` [GT-06409, 1-(4-((5-(3,5-dimethylisoxazol-4-yl)-2-methylphenyl)((1-((2-(2,4-dioxotetrahydropyrimidin-1(2H)-yl)-1-oxoisoindolin-5-yl)methyl)piperidin-4-yl)methyl)amino)phenyl)cyclopropane-1-carbonitrile], the “Degradation … (substrate protein remaining %)” value (AR) was “A (0%≤substrate protein remaining %≤80%)”.
In the case of `N#Cc1ccc(O[C@H]2CC[C@H](NC(=O)c3ccc(N4CCC(CN5CCN(C6CCN(c7ccc8c(c7)C(=O)N(N7CCC(=O)NC7=O)C8=O)CC6)CC5)CC4)nn3)CC2)cc1Cl` [GT-05829, N-((1r,4r)-4-(3-chloro-4-cyanophenoxy)cyclohexyl)-6-(4-((4-(1-(2-(2,4-dioxotetrahydropyrimidin-1(2H)-yl)-1,3-dioxoisoindolin-5-yl)piperidin-4-yl)piperazin-1-yl)methyl)piperidin-1-yl)pyridazine-3-carboxamide], the inhibition at 0.01 µM [1] is reported as 10 to 15%, the inhibition at 0.5 µM [1] is reported as 35 to 40% and the inhibition at 0.01 µM [2] is reported as 15 to 20%. The inhibition at 0.5 µM [2] was 20 to 30% and the “Degradation … (substrate protein remaining %)” value (AR) was “A (0%≤substrate protein remaining %≤80%)”.
For `Cc1ccc(-c2c(C)noc2C)cc1N(CC1CCN(Cc2ccc3c(c2)C(=O)N(N2CCC(=O)NC2=O)C3=O)CC1)c1ccc(C2(C#N)CC2)cc1` [GT-06410, 1-(4-((5-(3,5-dimethylisoxazol-4-yl)-2-methylphenyl)((1-((2-(2,4-dioxotetrahydropyrimidin-1(2H)-yl)-1,3-dioxoisoindolin-5-yl)methyl)piperidin-4-yl)methyl)amino)phenyl)cyclopropane-1-carbonitrile], the “Degradation … (substrate protein remaining %)” value (AR) was “A (0%≤substrate protein remaining %≤80%)”.
With `CC1(C)[C@H](NC(=O)c2ccc(N3CCC(CN4CCN(c5ccc6c(c5F)C(=O)N(N5CCC(=O)NC5=O)C6=O)CC4)CC3)nc2)C(C)(C)[C@H]1Oc1ccc(C#N)c(Cl)c1` [GT-05828, N-((1r,3r)-3-(3-chloro-4-cyanophenoxy)-2,2,4,4-tetramethylcyclobutyl)-6-(4-((4-(2-(2,4-dioxotetrahydropyrimidin-1(2H)-yl)-4-fluoro-1,3-dioxoisoindolin-5-yl)piperazin-1-yl)methyl)piperidin-1-yl)nicotinamide] the “Degradation … (substrate protein remaining %)” value (AR) was “A (0%≤substrate protein remaining %≤80%)”.
